Active and inactive are the calls of the source.
Columns and labels:
[1] = biological target: Cytochrome P450 3A4 (Homo sapiens, UniProt P08684); settings: Potency;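 also: confirmatory qHTS run detecting inhibitors and substrates of CYP3A4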
[2] = inhibitors of firefly luciferase expression or activity, dose response, H4 neuroglioma cells, luminescence (AID 1990); format: functional, cell-based
[3] = Luminescence Cell-Based Dose Response HTS to Identify Inhibitors of 5'UTR Stem-Loop Driven Prion Protein mRNA Translation in H4 Neuroglioblastoma Cells. [Related pubchem assays: 1827 (Project Summary), 1813 (Primary HTS)]; format: functional
[4] = inhibitors of SNCA 5'UTR-driven reporter translation, confirmation, H4 neuroglioma cells, luminescence (AID 1988); format: functional, cell-based
[5] = cytotoxicity in HEK-293T cells, dose response, cytotoxicity control for BCR NF-kB inhibitor project, luminescence, B-cell screen hits (AID 489021); format: functional, cell-based;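 also: HEK-293T cells carrying an NF-kB luciferase reporter; cells exposed to compound for about 14 hours before viability readout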
[6] = test system: HEK293; assay: inhibitors of LMP1-driven NF-kB reporter, dose response, cell-based, HEK293, luciferase, cherry-pick (AID 588343); format: functional; settings: Homo sapiens
[7] = test system: Streptococcus sp. 'group A'; assay: growth inhibition of control SK(-) GAS strain, dose response, counter-screen for streptokinase expression inhibitor project, luminescence, kanamycin, BacTiterGlo, confirmation (AID 1900); format: functional, organism-based
[8] = biological target: T1, Streptokinase A (Streptococcus pyogenes serotype M1, UniProt P10520); assay: S. pyogenes streptokinase expression inhibitors, potency, dose response, plasminogen activation absorbance, OD405 (AID 1914); format: functional, Streptococcus pyogenes M1 GAS;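 also: secreted streptokinase activity via plasminogen activation per viability signal from cell pellet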
T1 sequence (P10520 whole entry): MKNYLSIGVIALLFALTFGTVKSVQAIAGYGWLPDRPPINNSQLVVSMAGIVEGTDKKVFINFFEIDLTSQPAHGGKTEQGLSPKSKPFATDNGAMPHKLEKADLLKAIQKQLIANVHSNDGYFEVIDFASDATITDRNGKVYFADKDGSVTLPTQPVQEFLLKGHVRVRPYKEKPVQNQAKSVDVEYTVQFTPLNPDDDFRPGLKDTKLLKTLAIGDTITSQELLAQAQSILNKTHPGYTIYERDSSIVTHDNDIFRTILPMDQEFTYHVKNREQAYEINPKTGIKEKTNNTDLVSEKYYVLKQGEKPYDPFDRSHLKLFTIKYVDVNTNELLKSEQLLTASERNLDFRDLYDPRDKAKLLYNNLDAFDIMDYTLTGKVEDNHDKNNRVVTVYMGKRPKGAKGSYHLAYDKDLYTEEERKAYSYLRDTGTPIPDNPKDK

[9] = test system: Streptococcus; assay: Group A Streptococcus viability loss, dose response, counter-screen for streptokinase expression inhibitor project, luminescence, BacTiterGlo (AID 1915); format: functional, organism-based;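 also: potency for reduction of bacterial viability or growth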
[10] = biological target: Voltage-dependent T-type calcium channel subunit alpha-1H (Homo sapiens, UniProt O95180); format: functional;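 also: channel activity triggered by adding a high calcium stimulation buffer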
Voltage-dependent T-type calcium channel subunit alpha-1H, sequence (O95180 whole entry): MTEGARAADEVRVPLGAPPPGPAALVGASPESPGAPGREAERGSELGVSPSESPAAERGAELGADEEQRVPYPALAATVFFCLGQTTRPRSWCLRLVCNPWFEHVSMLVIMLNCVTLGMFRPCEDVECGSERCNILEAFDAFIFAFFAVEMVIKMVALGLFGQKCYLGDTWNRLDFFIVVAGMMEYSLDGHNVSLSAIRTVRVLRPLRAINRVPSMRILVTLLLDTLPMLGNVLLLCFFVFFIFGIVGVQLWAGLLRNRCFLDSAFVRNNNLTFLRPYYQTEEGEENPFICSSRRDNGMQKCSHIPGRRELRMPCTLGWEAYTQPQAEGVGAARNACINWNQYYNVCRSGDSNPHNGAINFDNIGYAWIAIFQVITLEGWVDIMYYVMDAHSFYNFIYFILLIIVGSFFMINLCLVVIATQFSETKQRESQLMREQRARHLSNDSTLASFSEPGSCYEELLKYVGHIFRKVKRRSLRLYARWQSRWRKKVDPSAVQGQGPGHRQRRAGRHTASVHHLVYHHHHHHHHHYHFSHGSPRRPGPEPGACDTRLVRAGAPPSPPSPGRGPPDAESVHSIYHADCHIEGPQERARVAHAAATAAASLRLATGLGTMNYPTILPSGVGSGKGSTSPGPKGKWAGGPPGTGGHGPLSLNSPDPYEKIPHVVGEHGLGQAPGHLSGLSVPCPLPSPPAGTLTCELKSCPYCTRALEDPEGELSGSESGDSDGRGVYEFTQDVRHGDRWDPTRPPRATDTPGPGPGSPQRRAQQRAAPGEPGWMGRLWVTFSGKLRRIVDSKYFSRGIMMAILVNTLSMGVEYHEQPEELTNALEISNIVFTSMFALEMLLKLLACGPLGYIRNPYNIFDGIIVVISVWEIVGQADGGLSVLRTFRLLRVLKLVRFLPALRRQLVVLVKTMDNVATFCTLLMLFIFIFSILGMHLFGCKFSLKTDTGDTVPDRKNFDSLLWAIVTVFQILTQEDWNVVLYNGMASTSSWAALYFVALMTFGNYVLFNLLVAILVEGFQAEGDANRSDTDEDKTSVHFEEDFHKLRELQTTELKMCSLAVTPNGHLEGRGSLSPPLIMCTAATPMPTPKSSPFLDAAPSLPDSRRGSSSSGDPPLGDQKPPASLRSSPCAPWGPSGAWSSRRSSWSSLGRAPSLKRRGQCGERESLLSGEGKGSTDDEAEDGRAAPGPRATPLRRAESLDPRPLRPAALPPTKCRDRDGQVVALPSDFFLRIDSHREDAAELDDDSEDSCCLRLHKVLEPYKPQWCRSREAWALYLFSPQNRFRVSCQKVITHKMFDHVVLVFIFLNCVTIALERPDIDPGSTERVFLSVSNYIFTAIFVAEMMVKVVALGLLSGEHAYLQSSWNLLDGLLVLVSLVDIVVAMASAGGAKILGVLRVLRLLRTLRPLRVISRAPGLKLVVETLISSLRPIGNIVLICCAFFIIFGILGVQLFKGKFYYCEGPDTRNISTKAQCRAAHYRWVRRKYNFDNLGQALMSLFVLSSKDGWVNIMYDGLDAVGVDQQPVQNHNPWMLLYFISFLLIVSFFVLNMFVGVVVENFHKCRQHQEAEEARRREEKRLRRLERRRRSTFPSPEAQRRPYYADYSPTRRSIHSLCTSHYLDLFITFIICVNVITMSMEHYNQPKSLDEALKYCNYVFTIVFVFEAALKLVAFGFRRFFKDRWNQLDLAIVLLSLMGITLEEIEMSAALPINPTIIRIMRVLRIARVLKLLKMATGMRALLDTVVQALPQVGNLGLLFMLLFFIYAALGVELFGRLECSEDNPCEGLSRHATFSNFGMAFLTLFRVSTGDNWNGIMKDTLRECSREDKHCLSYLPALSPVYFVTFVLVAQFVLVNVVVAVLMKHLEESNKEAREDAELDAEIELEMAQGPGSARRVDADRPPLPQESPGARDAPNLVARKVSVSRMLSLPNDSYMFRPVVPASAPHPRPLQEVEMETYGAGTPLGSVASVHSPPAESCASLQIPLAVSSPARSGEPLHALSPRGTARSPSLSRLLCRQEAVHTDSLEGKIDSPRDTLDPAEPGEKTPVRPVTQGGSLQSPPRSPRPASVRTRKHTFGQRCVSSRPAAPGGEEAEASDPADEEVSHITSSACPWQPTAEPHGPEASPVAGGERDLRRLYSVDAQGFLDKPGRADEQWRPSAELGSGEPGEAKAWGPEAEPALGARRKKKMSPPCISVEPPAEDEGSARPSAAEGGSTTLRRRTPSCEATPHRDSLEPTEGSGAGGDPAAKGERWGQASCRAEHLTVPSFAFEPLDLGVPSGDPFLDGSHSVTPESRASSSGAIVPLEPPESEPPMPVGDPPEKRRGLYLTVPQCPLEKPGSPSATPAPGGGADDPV

[11] = Luminescence Cell-Based Dose Retest to Confirm Inhibitors of Cancer Stem Cells. [Related pubchem assays (depositor defined):AID2717, AID2721]; format: functional; settings: Homo sapiens
[12] = biological target: DNA dC->dU-editing enzyme APOBEC-3A (Homo sapiens, UniProt P31941); assay: Dose Response confirmation of small molecule APOBEC3A DNA Deaminase Inhibitors via a fluorescence-based single-stranded DNA deaminase assay. [Related pubchem assays (depositor defined):AID493011, AID493024]; format: functional
DNA dC->dU-editing enzyme APOBEC-3A, sequence (P31941 whole entry): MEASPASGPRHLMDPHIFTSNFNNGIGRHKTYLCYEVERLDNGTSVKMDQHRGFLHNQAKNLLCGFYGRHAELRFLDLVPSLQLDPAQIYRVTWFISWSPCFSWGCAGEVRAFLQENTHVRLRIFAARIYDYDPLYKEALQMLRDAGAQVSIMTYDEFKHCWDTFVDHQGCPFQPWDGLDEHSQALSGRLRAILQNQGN

[13] = biological target: DNA dC->dU-editing enzyme APOBEC-3G (Homo sapiens, UniProt Q9HC16); format: functional;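 also: Dose-response counterscreen measuring inhibition of APOBEC3G DNA deaminase activity, run while confirming APOBEC3A inhibitors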
DNA dC->dU-editing enzyme APOBEC-3G, sequence (Q9HC16 whole entry): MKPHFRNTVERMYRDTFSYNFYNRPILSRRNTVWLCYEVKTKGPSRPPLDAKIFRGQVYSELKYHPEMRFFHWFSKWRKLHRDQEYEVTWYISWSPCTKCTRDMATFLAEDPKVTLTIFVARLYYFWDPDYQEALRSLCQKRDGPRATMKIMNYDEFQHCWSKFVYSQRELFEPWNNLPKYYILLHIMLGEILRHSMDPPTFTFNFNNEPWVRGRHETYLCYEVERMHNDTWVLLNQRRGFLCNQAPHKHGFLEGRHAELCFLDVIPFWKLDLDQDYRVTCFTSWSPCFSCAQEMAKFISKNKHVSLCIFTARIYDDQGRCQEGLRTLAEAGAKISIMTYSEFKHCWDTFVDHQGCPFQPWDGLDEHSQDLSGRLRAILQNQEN

[14] = biological target: T2, Acyl-homoserine lactone acylase PvdQ (Pseudomonas aeruginosa (strain LESB58), UniProt Q9I194); assay: P. aeruginosa PvdQ acylase inhibitors, dose response, biochemical, fluorescence, plate reader and imaging, cherry-picks (AID 493231)
T2 sequence (Q9I194 whole entry): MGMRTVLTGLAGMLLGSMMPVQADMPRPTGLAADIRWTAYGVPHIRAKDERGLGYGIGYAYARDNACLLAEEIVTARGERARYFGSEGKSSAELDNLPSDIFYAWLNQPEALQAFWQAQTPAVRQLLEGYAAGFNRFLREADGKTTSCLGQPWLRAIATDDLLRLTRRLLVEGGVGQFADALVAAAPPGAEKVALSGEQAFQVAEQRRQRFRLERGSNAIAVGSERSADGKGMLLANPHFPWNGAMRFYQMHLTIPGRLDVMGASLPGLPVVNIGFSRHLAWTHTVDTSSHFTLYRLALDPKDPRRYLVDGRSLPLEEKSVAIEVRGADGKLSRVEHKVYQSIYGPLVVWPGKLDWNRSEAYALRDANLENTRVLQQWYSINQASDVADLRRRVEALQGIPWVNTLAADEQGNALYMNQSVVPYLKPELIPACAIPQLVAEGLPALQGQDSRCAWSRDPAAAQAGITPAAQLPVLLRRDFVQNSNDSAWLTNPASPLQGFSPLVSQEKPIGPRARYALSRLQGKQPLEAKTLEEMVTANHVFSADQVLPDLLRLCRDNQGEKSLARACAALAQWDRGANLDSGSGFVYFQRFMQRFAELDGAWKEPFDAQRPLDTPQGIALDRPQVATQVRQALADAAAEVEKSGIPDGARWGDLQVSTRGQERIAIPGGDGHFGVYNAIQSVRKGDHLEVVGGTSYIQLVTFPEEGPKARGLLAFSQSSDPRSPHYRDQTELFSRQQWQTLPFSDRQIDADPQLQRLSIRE

[15] = biological target: Cytochrome P450 2C19 (Homo sapiens, UniProt P33261); assay: Cytochrome panel assay with activity outcomes. Panel member name: p450-cyp2c19 Compounds with AC50 equal or less than 10 uM are considered active; format: functional; settings: read-out: AC50
Cytochrome P450 2C19, sequence (P33261 whole entry): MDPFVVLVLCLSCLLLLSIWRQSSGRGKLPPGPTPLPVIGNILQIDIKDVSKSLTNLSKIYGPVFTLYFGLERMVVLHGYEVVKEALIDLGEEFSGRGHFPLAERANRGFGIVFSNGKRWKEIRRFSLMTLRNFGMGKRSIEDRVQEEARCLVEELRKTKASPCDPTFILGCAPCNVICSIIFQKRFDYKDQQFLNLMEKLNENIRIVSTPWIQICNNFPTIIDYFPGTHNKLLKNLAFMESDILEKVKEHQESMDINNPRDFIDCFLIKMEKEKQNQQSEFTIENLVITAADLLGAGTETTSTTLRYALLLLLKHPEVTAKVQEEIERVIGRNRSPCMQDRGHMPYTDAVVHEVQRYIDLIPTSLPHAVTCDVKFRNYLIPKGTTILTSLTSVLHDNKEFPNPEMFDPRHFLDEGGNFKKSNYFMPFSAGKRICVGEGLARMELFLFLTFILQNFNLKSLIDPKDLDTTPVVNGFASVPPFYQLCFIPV

[16] = biological target: Cytochrome P450 2C9 (Homo sapiens, UniProt P11712)
Cytochrome P450 2C9, sequence (P11712 whole entry): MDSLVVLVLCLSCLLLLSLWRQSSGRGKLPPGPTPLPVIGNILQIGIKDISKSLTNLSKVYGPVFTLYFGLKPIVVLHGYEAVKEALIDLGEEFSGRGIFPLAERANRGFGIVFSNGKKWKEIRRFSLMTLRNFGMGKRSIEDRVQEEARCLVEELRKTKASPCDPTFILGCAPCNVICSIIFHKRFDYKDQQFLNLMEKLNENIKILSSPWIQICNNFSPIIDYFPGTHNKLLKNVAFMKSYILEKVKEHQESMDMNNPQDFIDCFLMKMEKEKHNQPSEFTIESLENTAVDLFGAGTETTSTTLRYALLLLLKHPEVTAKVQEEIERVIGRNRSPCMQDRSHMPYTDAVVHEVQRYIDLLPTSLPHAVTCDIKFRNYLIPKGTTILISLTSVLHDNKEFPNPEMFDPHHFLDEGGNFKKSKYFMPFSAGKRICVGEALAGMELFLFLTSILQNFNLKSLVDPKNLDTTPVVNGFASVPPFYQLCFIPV

[17] = biological target: T3, Short transient receptor potential channel 4 (Mus musculus, UniProt Q9QUQ5); assay: mouse TRPC4 channel activators, dose response, cell-based, HEK293 TRPC4/mu-opioid, Fluo-4 calcium (AID 434937); format: functional
T3 sequence (Q9QUQ5 whole entry): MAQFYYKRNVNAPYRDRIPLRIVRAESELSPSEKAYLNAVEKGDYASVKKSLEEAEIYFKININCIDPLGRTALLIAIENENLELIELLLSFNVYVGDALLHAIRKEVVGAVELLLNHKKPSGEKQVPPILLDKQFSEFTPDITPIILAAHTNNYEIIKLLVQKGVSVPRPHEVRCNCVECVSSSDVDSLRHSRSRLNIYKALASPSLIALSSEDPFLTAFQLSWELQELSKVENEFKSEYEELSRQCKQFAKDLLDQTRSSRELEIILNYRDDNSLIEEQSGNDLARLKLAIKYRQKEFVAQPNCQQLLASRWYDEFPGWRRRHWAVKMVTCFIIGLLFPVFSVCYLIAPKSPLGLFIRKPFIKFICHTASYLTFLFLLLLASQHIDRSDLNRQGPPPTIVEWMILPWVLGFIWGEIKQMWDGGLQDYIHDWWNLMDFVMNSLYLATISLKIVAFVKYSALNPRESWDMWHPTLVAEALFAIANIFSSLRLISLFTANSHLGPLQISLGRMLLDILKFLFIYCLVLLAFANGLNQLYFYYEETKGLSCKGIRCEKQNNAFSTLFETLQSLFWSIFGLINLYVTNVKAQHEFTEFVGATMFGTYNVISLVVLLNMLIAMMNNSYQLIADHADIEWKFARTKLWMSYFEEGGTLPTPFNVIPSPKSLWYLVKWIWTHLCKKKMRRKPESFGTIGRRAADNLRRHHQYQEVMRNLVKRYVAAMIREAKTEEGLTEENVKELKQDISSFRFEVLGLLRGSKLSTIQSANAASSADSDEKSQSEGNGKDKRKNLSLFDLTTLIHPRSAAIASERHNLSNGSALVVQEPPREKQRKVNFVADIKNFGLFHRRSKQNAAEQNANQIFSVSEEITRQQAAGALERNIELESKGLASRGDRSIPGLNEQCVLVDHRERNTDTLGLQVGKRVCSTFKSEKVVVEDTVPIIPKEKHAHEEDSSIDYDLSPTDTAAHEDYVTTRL

[18] = NIH-3T3 fibroblast cytotoxicity, dose response, cytotoxicity control, cell-based, fluorescence, Alamar Blue, secondary assay (AID 2327); format: functional;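 also: NIH-3T3 mouse fibroblasts cultured with fluconazole at 8 µg/mL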
[19] = cells; format: functional, cell-based
[20] = C. albicans growth with fluconazole, confirmation, fluorescence, retest (AID 2467); format: functional, cell-based
[21] = cells; format: functional, cell-based; remark: listed apart in the source
[22] = test system: INS1; assay: beta cell apoptosis inhibitors, cytokine rescue, dose response, luminescence, retest (AID 449756); format: functional, cell-based; settings: Rattus norvegicus;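 also: cell death triggered by IL-1 beta plus TNF-alpha plus IFN-gamma mixture; protective hits raise ATP signal compared with cytokine alone wells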

Cytochrome P450 3A4, sequence (P08684 whole entry): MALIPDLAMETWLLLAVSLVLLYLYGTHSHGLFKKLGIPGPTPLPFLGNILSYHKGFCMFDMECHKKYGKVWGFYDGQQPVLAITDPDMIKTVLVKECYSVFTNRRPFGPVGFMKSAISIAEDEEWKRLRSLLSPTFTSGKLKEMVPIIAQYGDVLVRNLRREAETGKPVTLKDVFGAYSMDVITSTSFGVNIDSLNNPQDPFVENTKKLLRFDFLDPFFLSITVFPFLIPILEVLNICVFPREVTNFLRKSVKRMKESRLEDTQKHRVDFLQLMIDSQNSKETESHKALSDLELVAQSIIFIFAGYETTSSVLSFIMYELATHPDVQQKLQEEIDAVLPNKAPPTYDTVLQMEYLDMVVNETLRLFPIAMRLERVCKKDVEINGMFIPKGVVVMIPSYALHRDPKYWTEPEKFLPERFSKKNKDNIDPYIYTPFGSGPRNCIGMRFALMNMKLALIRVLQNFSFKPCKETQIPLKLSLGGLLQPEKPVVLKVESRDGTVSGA

In the case of `Cc1nc(N2CCOCC2)c2nc(-c3ccccc3)n(CCN3CCCC3)c2n1`, the AC50 [1] is reported as 20 µM (inconclusive).

In the case of `O=C(CCCN1C(=O)/C(=C/c2ccccc2Cl)SC1=S)NNC(=O)c1ccccc1Cl`, the EC50 [2] is reported as 5.95 µM (active), the EC50 [3] is reported as 10.5 µM (active) and the EC50 [4] is reported as 7.8 µM (active). The IC50 [5] was > 80 µM (inactive) and the AC50 [6] was 9.18 µM (active).

With `O/N=C(\c1ccc(Cl)cc1Cl)c1ncc(C(F)(F)F)cc1Cl` the EC50 [7] was 10.6 µM (active), the EC50 [8] was 35.2 µM (active) and the EC50 [9] was > 150 µM (not active). The EC50 [10] was 2.11 µM (active) and the AC50 [11] was 8.81 µM (active).

With `CCN(CC)CCCCn1c(-c2ccccc2)nc2c(NC3CCCCC3)nc(C)nc21` the AC50 [1] was 25.1 µM (inconclusive).

In the case of `CC(C)CC1CCCCC1OC(=O)C[N+]1(C)CCCCC1` (configuration not stated), the IC50 [12] is reported as 2.2 µM (active) and the IC50 [13] is reported as 2.29 µM (active).

In the case of `C[n+]1ccccc1/C=C/c1ccc2ncccc2c1`, the IC50 [12] is reported as 0.892 µM (active) and the IC50 [13] is reported as 1.92 µM (active).

For `O=C1C=C(c2cc(F)ccc2F)C[C@@H](c2ccc(F)cc2)C1`, the AC50 [14] was 9.05 µM (active).

With `O=S1(=O)CCOC[C@H](c2ccccc2)N1Cc1cccc(Cl)c1` the AC50 [14] was 12.7 µM (active).

For `COc1ccc(NC(=O)c2cc(C(C)C)on2)cc1OC`, the AC50 [15] was 20 µM (inconclusive) and the AC50 [16] was “inconclusive”.

In the case of `CCOC(=O)C1(CCOc2ccccc2)CCN(Cc2ccc(NC(C)=O)cc2)CC1`, the EC50 [17] is reported as 0.211 µM (active).

With `Cc1ccc(/C=N/NC(=O)c2c(-c3ccccc3)noc2C)c(O)c1` the EC50 [18] was > 150 µM (inactive), the EC50 [19] was 12.4 µM (active) and the EC50 [20] was 2.83 µM (active). The EC50 [21] was > 350 µM (not active) and the AC50 [22] was 2.33 µM (active).

In the case of `Cc1ccccc1-n1c(SCc2c(C)noc2C)nnc1-c1c[nH]c2ccccc12`, the IC50 [5] is reported as > 80 µM (inactive).

Reference: ChEMBL document CHEMBL1201862, “PubChem BioAssay data set” (2004)
